From ChEMBL document CHEMBL1143959, “Synthesis and structure-affinity relationships of novel spirocyclic sigma receptor ligands with furopyrazole structure” (Bioorg Med Chem, 2008)
Each block holds one compound with its values, some of them ahead of it.

Assays:
[1] = organism: Rattus norvegicus; assay: Displacement of [3H]ditolylguanidine from sigma 2 […] receptor in rat liver at 1 uM
[2] = Displacement of [3H]ditolylguanidine from sigma 2 […] receptor in rat liver
[3] = Displacement of [3H]MK-801 from NMDA receptor at 1 uM
[4] = Inhibition of adrenergic alpha 1 receptor
[5] = target: T1, 5-hydroxytryptamine receptor 1A (Homo sapiens, UniProt P08908); assay: Inhibition of 5HT1A receptor
T1 sequence (P08908 whole entry): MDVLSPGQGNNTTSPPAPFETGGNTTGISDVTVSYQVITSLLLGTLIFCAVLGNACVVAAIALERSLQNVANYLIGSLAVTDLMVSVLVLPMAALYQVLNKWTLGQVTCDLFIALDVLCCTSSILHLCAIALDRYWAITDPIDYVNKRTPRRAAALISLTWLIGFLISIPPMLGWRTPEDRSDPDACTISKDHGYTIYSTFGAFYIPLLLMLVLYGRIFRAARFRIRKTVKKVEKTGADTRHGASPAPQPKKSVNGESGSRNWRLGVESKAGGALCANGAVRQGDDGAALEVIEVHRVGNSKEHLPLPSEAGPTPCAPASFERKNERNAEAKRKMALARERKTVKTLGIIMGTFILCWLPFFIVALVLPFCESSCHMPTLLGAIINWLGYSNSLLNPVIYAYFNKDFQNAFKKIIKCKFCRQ

[6] = target: Sodium-dependent serotonin transporter (Homo sapiens, UniProt P31645); assay: Inhibition of 5HTT receptor
Sodium-dependent serotonin transporter, sequence (P31645 whole entry): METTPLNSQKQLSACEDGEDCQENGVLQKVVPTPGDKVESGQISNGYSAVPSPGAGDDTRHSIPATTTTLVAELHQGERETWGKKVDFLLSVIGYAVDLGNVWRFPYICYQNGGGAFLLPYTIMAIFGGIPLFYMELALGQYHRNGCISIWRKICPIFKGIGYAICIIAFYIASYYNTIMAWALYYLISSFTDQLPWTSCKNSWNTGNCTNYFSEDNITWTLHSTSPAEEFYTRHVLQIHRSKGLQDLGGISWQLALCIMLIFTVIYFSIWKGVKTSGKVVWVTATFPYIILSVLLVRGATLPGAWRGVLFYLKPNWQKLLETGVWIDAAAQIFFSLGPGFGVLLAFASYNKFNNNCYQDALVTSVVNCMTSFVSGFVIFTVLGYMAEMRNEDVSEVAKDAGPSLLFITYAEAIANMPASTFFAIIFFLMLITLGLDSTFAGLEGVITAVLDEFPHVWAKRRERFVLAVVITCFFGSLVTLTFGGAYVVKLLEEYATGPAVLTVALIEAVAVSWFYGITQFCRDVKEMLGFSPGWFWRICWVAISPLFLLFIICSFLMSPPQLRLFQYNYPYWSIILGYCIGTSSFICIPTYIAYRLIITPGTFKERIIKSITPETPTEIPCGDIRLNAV

[7] = Inhibition of adrenergic alpha 2 receptor
[8] = target: Voltage-gated inwardly rectifying potassium channel KCNH2 (Homo sapiens, UniProt Q12809); assay: Inhibition of human ERG channel
Voltage-gated inwardly rectifying potassium channel KCNH2, sequence (Q12809 whole entry): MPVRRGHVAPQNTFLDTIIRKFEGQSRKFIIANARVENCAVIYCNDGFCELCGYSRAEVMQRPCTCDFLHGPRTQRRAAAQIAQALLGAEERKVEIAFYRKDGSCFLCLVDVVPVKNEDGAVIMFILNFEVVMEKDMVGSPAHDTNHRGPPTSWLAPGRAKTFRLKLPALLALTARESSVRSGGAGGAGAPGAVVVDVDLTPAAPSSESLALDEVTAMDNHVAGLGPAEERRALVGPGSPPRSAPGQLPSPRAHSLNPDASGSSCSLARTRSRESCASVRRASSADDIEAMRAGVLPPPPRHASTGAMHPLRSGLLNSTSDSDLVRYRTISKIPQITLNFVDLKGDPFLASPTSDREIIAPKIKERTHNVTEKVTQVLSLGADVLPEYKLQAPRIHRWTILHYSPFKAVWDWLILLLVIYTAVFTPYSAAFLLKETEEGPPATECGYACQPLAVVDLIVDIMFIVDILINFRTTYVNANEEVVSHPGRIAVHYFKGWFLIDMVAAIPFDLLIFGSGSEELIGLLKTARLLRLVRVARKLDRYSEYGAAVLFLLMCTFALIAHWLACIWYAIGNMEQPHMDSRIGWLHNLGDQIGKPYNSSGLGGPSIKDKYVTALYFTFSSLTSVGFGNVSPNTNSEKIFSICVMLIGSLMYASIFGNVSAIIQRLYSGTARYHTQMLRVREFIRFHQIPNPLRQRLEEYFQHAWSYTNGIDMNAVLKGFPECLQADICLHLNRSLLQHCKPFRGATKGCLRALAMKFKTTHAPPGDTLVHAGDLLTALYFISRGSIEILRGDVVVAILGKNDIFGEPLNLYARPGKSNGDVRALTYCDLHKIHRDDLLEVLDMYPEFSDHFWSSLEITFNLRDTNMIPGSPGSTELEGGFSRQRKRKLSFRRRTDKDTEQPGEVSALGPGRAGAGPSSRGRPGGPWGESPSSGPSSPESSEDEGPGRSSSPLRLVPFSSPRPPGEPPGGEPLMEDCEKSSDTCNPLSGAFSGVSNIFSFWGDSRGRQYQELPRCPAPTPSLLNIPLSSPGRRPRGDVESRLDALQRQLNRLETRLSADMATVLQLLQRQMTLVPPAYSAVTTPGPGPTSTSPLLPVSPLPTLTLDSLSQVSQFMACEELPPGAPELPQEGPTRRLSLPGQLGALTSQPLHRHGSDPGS

[9] = target: Sigma non-opioid intracellular receptor 1 (Cavia porcellus, UniProt Q60492); assay: Displacement of [3H](+)-pentazocine from sigma 1 opioid receptor in guinea pig brain membrane; format: cell membranes
Sigma non-opioid intracellular receptor 1, sequence (Q60492 whole entry): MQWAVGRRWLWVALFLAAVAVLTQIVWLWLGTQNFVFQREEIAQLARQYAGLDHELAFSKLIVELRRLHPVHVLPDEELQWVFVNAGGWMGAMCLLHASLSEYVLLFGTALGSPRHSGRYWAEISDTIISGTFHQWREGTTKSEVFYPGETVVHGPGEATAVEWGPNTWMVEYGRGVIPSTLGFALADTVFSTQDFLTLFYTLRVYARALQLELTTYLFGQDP

inhibition [1]: 12%
Structure (SMILES): COC1OC2(CCNCC2)c2cnn(-c3ccccc3)c21 (stereo not drawn)

Structure (SMILES): CCCCN1CCC2(CC1)OC(OC)c1c2cnn1-c1ccccc1 (stereo not drawn)
Ki [2]: 1.05 µM | inhibition [3]: 30% | IC50 [4]: 1.22 µM | IC50 [5]: > 10 µM | IC50 [6]: > 10 µM | IC50 [7]: > 1 µM | IC50 [8]: 0.00065 µM

Ki [2]: 0.0362 µM
Structure (SMILES): c1ccc(-n2ncc3c2CCC3CCN2CCCCC2)cc1 (stereo not drawn)

Structure (SMILES): COC1OC2(CCN(Cc3ccccc3)CC2)c2cnn(-c3ccccc3)c21 (stereo not drawn)
Ki [2]: 1.75 µM | inhibition [3]: 17% | IC50 [4]: > 1 µM | IC50 [5]: > 10 µM | IC50 [6]: > 10 µM | Ki [9]: 0.0005 µM | IC50 [7]: > 1 µM | IC50 [8]: 0.00041 µM

Ki [2]: 0.0202 µM
Structure (SMILES): Cc1ccccc1NC(=N)Nc1ccccc1C [DITOLYLGUANIDINE]
